# Reference: US6747147B2, “Oxo-azabicyclic compounds” (Warner-Lambert Company, priority 2002, dated 2004)
# Where a name gives a salt, the structure may show the parent alone.
# Biological target: T1, catalytic domain of human MMP-13 (Homo sapiens, UniProt P45452)
# T1 construct: the catalytic domain of human MMP-13
# Experiment: Inhibition of proteolysis of a thioester peptide substrate by MMP-13
# Format: biochemical
# Conditions: not given
# Description: Evaluation of the in vitro activity of the MMP-13 inhibitor compounds according to the invention.
# The inhibitory activity of the compounds of formula (I) according to the invention with respect to matrix metalloprotease-13 is evaluated by testing the ability of the compounds of the invention to inhibit the proteolysis of a peptide substrate with MMP-13.
# The peptide substrate used in the test is the following peptide: Ac-Pro-Leu-Gly-thioester-Leu-Leu-Gly-OEt.
# To carry out this test, a reaction medium of 100 μl volume is prepared, containing: 50 mM of HEPES buffer, 10 mM of CaCl2 and 1 mM of 5,5′-dithiobis-(2-nitrobenzoic acid) (DTNB), and 100 μM of substrate, the pH being adjusted to 7.0.
# The concentrations of inhibitors present in the test samples range from 100 μM to 0.5 nM.
# The IC50 values are calculated from a curve in which the percentage of the catalytic activity relative to the control is represented on the X-axis and the concentration of inhibitor is represented on the Y-axis.
row,Compound,IC50 [nM]
1,"COC(=O)c1ccc(Cn2cnc3ccc(C#CCc4ccccc4)cc3c2=O)cc1 [Example 9, Methyl 4-[4-Oxo-6-(3-phenyl-prop-1-ynyl)-4H-quinazolin-3-ylmethyl]-benzoate]",< 1000
2,"O=c1c2cc(C#CCc3ccccc3)ccc2ncn1Cc1ccc(F)cc1 [Example 8, 3-(4-fluorobenzyl)-6-(3-phenyl-pro-1-ynyl)-3 H-quinazolin-4-one]",< 1000
3,"NS(=O)(=O)c1ccc(Cn2cnc3ccc(C#CCc4ccccc4)cc3c2=O)cc1 [Example 59, 4-[4-Oxo-6-(3-phenyl-prop-1-ynyl)-4H-quinazolin-3-ylmethyl]-benzenesulfonamide]",< 1000

# Continued, values first:
row,IC50 [nM],Compound
1,< 1000,"N#Cc1ccc(Cn2cnc3ccc(C#CCc4ccccc4)cc3c2=O)cc1 [Example 60, 4-[4-Oxo-6-(3-phenyl-prop-1-ynyl)-4H-quinazolin-3-ylmethyl]-benzonitrile]"
2,≥ 65000,"O=C(O)c1ccc(Cn2cnc3ccc(C#CCN4CCOCC4)cc3c2=O)cc1 [Example 106, 4-[6-(3-Morpholin-4-yl-prop-1-ynyl)-4-oxo-4H-quinazolin-3-ylmethyl]-benzoic acid trifluoroacetic acid salt]"
3,≥ 65000,"O=C(O)c1ccc(Cn2cnc3ccc(C#CCN4CCCCC4)cc3c2=O)cc1 [Example 107, 4-[4-Oxo-6-(3-piperidin-1-yl-prop-1-ynyl)-4H-quinazolin-3-ylmethyl]-benzoic acid trifluoroacetic acid salt]"
4,< 1000,"O=c1c2cc(C#CCc3ccccc3)ccc2ncn1Cc1cccc(Cl)c1 [Example 62, 3-(3-Chloro-benzyl)-6-(3-phenyl-prop-1-ynyl)-3H-quinazolin-4-one]"

# Same assay, conditions: substrate Ac-Pro-Leu-Gly-thioester-Leu-Leu-Gly-OEt 100 μM, pH 7.0, 2.5 nM enzyme; read-out: IC50 values on MMP-13
row,Compound,IC50 [nM]
1,"COc1ccc(CNC(=O)c2ccc3nc(C)n(Cc4ccc(OC)cc4)c(=O)c3c2)cc1 [Example 2, 3-(4-Methoxy-benzyl)-2-methyl-4-oxo-3,4-dihydro-quinazoline-6-carboxylic acid 4-methoxy-benzylamide, hydrochloride]",< 1000
2,COc1ccc(CNC(=O)c2ccc3ncn(Cc4ccc(S(C)(=O)=O)cc4)c(=O)c3c2)cc1 [Example 15],< 1000
3,"COc1cccc(CNC(=O)c2ccc3ncn(Cc4ccc(F)cc4)c(=O)c3c2)c1 [Example 14, 3-(4-Fluoro-benzyl)-4-oxo-3,4-dihydro-quinazoline-6-carboxylic acid 3-methoxy-benzylamide]",< 1000
4,"COc1cccc(CNC(=O)c2ccc3ncn(Cc4ccc(C(=O)O)cc4)c(=O)c3c2)c1 [Example 17, 4-[6-(3-Methoxy-benzylcarbamoyl)-4-oxo-4H-quinazolin-3-ylmethyl]-benzoic acid]",< 1000
5,"COc1ccc(CNC(=O)c2cc3c(=O)n(Cc4cccc(F)c4)cnc3cn2)cc1 [Example 24, 3-(3-Fluoro-benzyl)-4-oxo-3,4-dihydro-pyrido[3,4-d]pyrimidine-6-carboxylic acid 4-methoxy-benzylamide]",< 1000
6,"COc1cc(CNC(=O)c2ccc3ncn(Cc4ccc(F)cc4)c(=O)c3c2)ccn1 [Example 21, 3-(4-Fluoro-benzyl)-4-oxo-3,4-dihydro-quinazoline-6-carboxylic acid (2-methoxy-pyridin-4-ylmethyl)-amide]",< 1000
7,"COc1ccc(CNC(=O)c2ccc3ncn(Cc4ccc(OC)cc4)c(=O)c3c2)cc1 [Example 1, 3-(4-Methoxy-benzyl)-4-oxo-3,4-dihydro-quinazoline-6-carboxylic acid 4-methoxy-benzylamide]",< 1000
8,"COc1cccc(CNC(=O)c2cc3c(=O)n(Cc4cccc(F)c4)cnc3cn2)c1 [Example 23, 3-(3-Fluoro-benzyl)-4-oxo-3,4-dihydro-pyrido[3,4-d]pyrimidine-6-carboxylic acid 3-methoxy-benzylamide]",< 1000
9,"COc1ccc(CNC(=O)c2ccc3c(c2)C(=O)N(Cc2ccc(C(=O)O)cc2)CN3)cc1 [Example 5, 4-[6-(4-Methoxy-benzylcarbamoyl)-4-oxo-1,4-dihydro-2H-quinazolin-3-ylmethyl]-benzoic acid]",< 1000
10,"COc1ccc(CNC(=O)c2ccc3c(c2)C(=O)N(Cc2ccc(C(=O)O)cc2)CN3C)cc1 [Example 7, 4-[6-(4-Methoxy-benzylcarbamoyl)-1-methyl-4-oxo-1,4-dihydro-2H-quinazolin-3-ylmethyl]-benzoic acid]",< 1000
11,"COc1ccc(CNC(=O)c2ccc3c(c2)C(=O)N(Cc2ccc(OC)cc2)C(C)(C)N3C)cc1 [Example 4, 3-(4-Methoxy-benzyl)-1,2,2-trimethyl-4-oxo-1,2,3,4-tetrahydro-quinazoline-6-carboxylic acid 4-methoxy-benzylamide]",< 1000
12,"COc1ccc(CNC(=O)c2ccc3c(c2)C(=O)N(Cc2ccc(OC)cc2)CN3C)cc1 [Example 3, 3-(4-Methoxy-benzyl)-1-methyl-4-oxo-1,2,3,4-tetrahydro-quinazoline-6-carboxylic acid 4-methoxy-benzylamide]",< 1000
13,"COc1ccc(CNC(=O)c2ccc3ncn(Cc4ccc(S(=O)(=O)N5CCCC5)cc4)c(=O)c3c2)cc1 [Example 16, 4-Oxo-3-[4-(pyrrolidine-1-sulfonyl)-benzyl]-3,4-dihydro-quinazoline-6-carboxylic acid 4-methoxy-benzylamide]",< 1000
14,"COC(=O)c1ccc(CN2CN(C)c3ccc(C(=O)NCc4ccc(OC)cc4)cc3C2=O)cc1 [Example 6, Methyl 4-[6-(4-Methoxy-benzylcarbamoyl)-1-methyl-4-oxo-1,4-dihydro-2H-quinazolin-3-ylmethyl]-benzoate]",< 1000

# Now from value to molecule:
row,IC50 [nM],Compound
1,< 1000,"O=c1c2cc(C#CCOc3ccncc3)ccc2ncn1Cc1ccc(F)c(F)c1 [Example 65, 3-(3,4-Difluoro-benzyl)-6-[3-(pyridin-4-yloxy)-prop-1-ynyl]-3H-quinazolin-4-one]"
2,< 1000,"O=c1c2cc(C#CCc3ccccc3)ccc2ncn1Cc1ccc(F)c(F)c1 [Example 68, 3-(3,4-Difluoro-benzyl)-6-(3-phenyl-prop-1-ynyl)-3H-quinazolin-4-one]"
3,< 1000,"COc1ccc(CC#Cc2ccc3ncn(Cc4ccc(C(C)=O)cc4)c(=O)c3c2)cc1 [Example 69, 3-(4-Acetyl-benzyl)-6-[3-(4-methoxy-phenyl)-prop-1-ynyl]-3H-quinazolin-4-one]"
4,< 1000,"O=C(O)c1ccc(Cn2cnc3ccc(C#CCN4Cc5ccccc5C4)cc3c2=O)cc1 [Example 109, 4-{6-[3-(1,3-Dihydro-isoindol-2-yl)-prop-1-ynyl]-4-oxo-4H-quinazolin-3-ylmethyl}-benzoic acid trifluoroacetic acid]"
5,< 1000,"COc1ccc(CC#Cc2ccc3ncn(Cc4ccc(F)c(F)c4)c(=O)c3c2)cc1 [Example 66, 3-(3,4-Difluoro-benzyl)-6-[3-(4-methoxy-phenyl)-prop-1-ynyl]-3H-quinazolin-4-one]"
6,< 1000,"CC(=O)Nc1ccc(Cn2cnc3ccc(C#CCc4ccccc4)cc3c2=O)cc1 [Example 67, N-{4-[4-Oxo-6-(3-phenyl-prop-1-ynyl)-4H-quinazolin-3-ylmethyl]-phenyl}-acetamide]"
7,< 1000,"COc1ccc(CC#Cc2ccc3ncn(Cc4ccncc4)c(=O)c3c2)cc1 [Example 71, 6-[3-(4-Methoxy-phenyl)-prop-1-ynyl]-3-pyridin-4-ylmethyl-3H-quinazolin-4-one]"
8,≥ 65000,"CN1CCN(CC#Cc2ccc3ncn(Cc4ccc(C(=O)O)cc4)c(=O)c3c2)CC1 [Example 108, 4-{6-[3-(4-Methyl-piperazin-1-yl)-prop-1-ynyl]-4-oxo-4H-quinazolin-3-ylmethyl}-benzoic acid trifluoroacetic acid salt]"
9,< 1000,"O=c1c2cc(C#CCc3ccccc3)ccc2ncn1Cc1ccncc1 [Example 70, 6-(3-Phenyl-prop-1-ynyl)-3-pyridin-4-ylmethyl-3H-quinazolin-4-one]"
10,< 1000,"COc1ccc(CNC(=O)c2ccc3ncn(Cc4ccc(F)c(F)c4)c(=O)c3c2)cc1 [Example 105, 3-(3,4-Difluoro-benzyl)-4-oxo-3,4-dihydro-quinazoline-6-carboxylic acid 4-methoxy-benzylamide]"
11,< 1000,"COc1cc(CNC(=O)c2ccc3ncn(Cc4ccc(F)c(F)c4)c(=O)c3c2)ccn1 [Example 104, 3-(3,4-Difluoro-benzyl)-4-oxo-3,4-dihydro-quinazoline-6-carboxylic acid (2-methoxy-pyridin-4-ylmethyl)-amide]"
